Where two headings read alike, the source gives them in different places.
Legend:
SF3b complexes = target: T1, SF3b complexes (Homo sapiens, UniProt O75533+Q7RTV0); test: Scintillation proximity assay (SPA) with [3H]-labelled pladienolide probe; assay type: binding; conditions: SF3B1 (WT); geometric mean; read-out: SPA-ATS GMean IC50 (nM) SF3B1 (WT)
T1 construct: endogenous in cells; host or cells: Nuclear extracts; A HeLa S3 extract preparation is described for the in vitro splicing assay
Outline: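 SF3b complexes captured from nuclear extracts on anti-SF3B1 antibody SPA beads; test compounds pre-incubated 30 min before 2.5 nM [3H]-pladienolide probe added, then 30 min incubation. Bound probe read by scintillation; values from non-linear regression of concentration–response curves.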

[1] = tested on: Ad2 variant pre-mRNAs spliced in HeLa S3 nuclear extracts; test: In vitro splicing assay (IVS), RT-qPCR of spliced product; assay type: biochemical; conditions: for IC50: geometric mean
Outline: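 Ad2 variant pre-mRNA (2 ng) with FTZΔi control RNA in HeLa S3 nuclear extract (8 μg) was pre-incubated with compound or DMSO for 15 min at 30 °C. Splicing ran 90 min at 30 °C after adding 0.5 mM ATP, creatine phosphate and MgCl2. Spliced product was quantified by TaqMan RT-qPCR, normalized to DMSO, and curve-fitted.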

[2] = tested on: NCI-H1568 cells (high MCL1); test: Cell proliferation and viability, CellTiter-Glo, 72 hours; assay type: cell-based; conditions: for GI50: geometric mean
Outline: (§1)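 Cells grown in RPMI-1640 with 10% FBS (Panc line with added insulin and FBS to 15%) were exposed to an 11-point half-log dilution series, typically 10 μM-100 pM, at 0.1% final DMSO. After incubation at 37° C, 5% CO2, ATP content was measured by luminescence and normalized to a time-zero plate and DMSO wells.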

[3] = tested on: Panc 05.04 cells (SF3b K700E mutant); test: as above; assay type: cell-based; conditions: for GI50: geometric mean
Outline: as §1

[4] = Ad2.1 pre-mRNA substrate, read-out: qPCR-IVS-ATS GMean IC50 (nM) Ad2.1
[5] = Ad2.2 pre-mRNA substrate, read-out: qPCR-IVS-ATS GMean IC50 (nM) Ad2.2
[6] = NCI-H1568, read-out: CTGlo-ATS GMean GI50 (nM) 72 h NCIH1568.1, NCIH1568.1 cells, 72 h
[7] = NCIH1568.1 cells, 72 h, −100% cidal, 0% static, 100% maximal growth
[8] = PANC0504.1 cells, 72 h, −100% cidal, 0% static, 100% maximal growth
[9] = Panc 05.04, read-out: CTGlo-ATS GMean GI50 (nM) 72 h PANC0504.1, PANC0504.1 cells, 72 h

SMILES	IC50 (SF3b complexes)	IC50 [1, 4]	IC50 [1, 5]	Ratio Ad2.1/2.2 ([1]; ratio of IVS IC50 Ad2.1 to Ad2.2)	CTGlo-ATS Mean MinResponse % 72 h NCIH1568.1 ([2]; 72 h, NCIH1568.1, -100% = cidal, 0% = static, 100% = uninhibited growth)	GI50 ([2]; NCI-H1568, read-out: CTGlo-ATS GMean GI50 (nM) 72 h NCIH1568.1, 72 h, NCIH1568.1)	CTGlo-ATS Mean MinResponse % 72 h PANC0504.1 ([3]; 72 h, PANC0504.1, -100% = cidal, 0% = static, 100% = uninhibited growth)	GI50 ([3]; Panc 05.04, read-out: CTGlo-ATS GMean GI50 (nM) 72 h PANC0504.1, 72 h, PANC0504.1)	GI50 [2, 6]	CTGlo-ATS Mean MinResponse % 72 h NCIH1568.1 [2, 7]	CTGlo-ATS Mean MinResponse % 72 h PANC0504.1 [3, 8]	GI50 [3, 9]	GI50 ([2]; NCI-H1568, 72 h, read-out: CTGlo-ATS GMean GI50 (nM) 72 h NCIH1568.1, NCIH1568.1 cells, 72 h)	GI50 ([3]; Panc 05.04, 72 h, read-out: CTGlo-ATS GMean GI50 (nM) 72 h PANC0504.1, PANC0504.1 cells, 72 h)
C/C(=C\c1cc(F)cc(N2CCOCC2)c1)[C@H]1OC(=O)C[C@H](O)CC[C@H](C)[C@@H](OC(=O)NCCN(C)C)/C=C/[C@@H]1C [Compound 242, [(2S,3S,4E,6R,7S,10R)-2-[(E)-1-(3-fluoro-5-morpholin-4-ylphenyl)prop-1-en-2-yl]-10-hydroxy-3,7-dimethyl-12-oxo-1-oxacyclododec-4-en-6-yl] N-[2-(dimethylamino)ethyl]carbamate]	15.3 nM	7150 nM	62.1 nM	115.051	−65.744%	180 nM	−92.786%	68.9 nM	–	–	–	–	–	–
C/C(=C\c1cc(F)cc(N(C)C2CCN(S(C)(=O)=O)CC2)c1)[C@H]1OC(=O)C[C@H](O)CC[C@H](C)[C@@H](OC(=O)N2CCN(C)CC2)/C=C/[C@@H]1C [Compound 174]	3.14 nM	13.1 nM	10.7 nM	–	–	–	–	–	3.86 nM	−92.525%	−80.529%	6.04 nM	–	–
C/C(=C\c1cccc(N2CCN(C)CC2)c1)[C@H]1OC(=O)C[C@H](O)CC[C@H](C)[C@@H](OC(=O)N2CCN(C)CC2)/C=C/[C@@H]1C [Compound 2]	14.7 nM	29.3 nM	24.8 nM	–	–	–	–	–	40.6 nM	−70.665%	−76.626%	30.3 nM	–	–
C/C(=C\c1cc(F)cc(N2CCOCC2)c1)[C@H]1OC(=O)C[C@H](O)CC[C@H](C)[C@@H](OC(=O)N2CCN(C(C)C)CC2)/C=C/[C@@H]1C [Compound 24]	5.19 nM	192 nM	30.7 nM	–	–	–	–	–	10.9 nM	−67.459%	−89.895%	8.29 nM	–	–
C/C(=C\c1cnn(Cc2ccncc2)c1)[C@H]1OC(=O)C[C@H](O)CC[C@H](C)[C@@H](OC(=O)N2CCN(C)CC2)/C=C/[C@@H]1C [Compound 102]	29.8 nM	> 25000 nM	507 nM	–	–	–	–	–	4900 nM	31.099%	24.371%	3020 nM	–	–
C/C(=C\c1cc(F)cc(N2C[C@@H](C)O[C@@H](C)C2)c1)[C@H]1OC(=O)C[C@H](O)CC[C@H](C)[C@@H](OC(=O)N2CCC(N3CCCCC3)CC2)/C=C/[C@@H]1C [Compound 16]	57 nM	100 nM	39.2 nM	–	–	–	–	–	59.1 nM	−88.977%	−85.810%	41.5 nM	–	–
C/C(=C\c1cc(F)cc(N2CCO[C@H](CO)C2)c1)[C@H]1OC(=O)C[C@H](O)CC[C@H](C)[C@@H](OC(=O)N2CCN(C)CC2)/C=C/[C@@H]1C [Compound 76]	4.2 nM	21.5 nM	17.7 nM	–	–	–	–	–	–	−77.948%	−90.504%	–	3.02 nM	5.17 nM
